# Data from patent US8173643B2, “N-substituted thiomorpholine derivatives as the inhibitors of dipeptidyl peptidase IV and the pharmaceutical uses thereof” (Beijing Molecule Science and Technology Co., Ltd., priority 2007, dated 2012).
# Counter-ions that a name gives are not always drawn.
# Experiments:
# [1] = biological target: T1, DPP-IV (Homo sapiens, UniProt P27487); experiment: Determination of DPP-IV inhibitory activity and IC50 (enzyme from Caco-2 cell lysate, absorbance at 405 nm); type: biochemical; conditions: for inhibition at 0.1 µM: Concentration 100 nM; for inhibition at 0.3 µM: Concentration 300 nM
# T1 construct: endogenous in cells; host or cells: Caco-2 (human colon carcinoma), differentiated; NP-40 lysate, 35000 g supernatant
# T1 sequence (P27487 whole entry): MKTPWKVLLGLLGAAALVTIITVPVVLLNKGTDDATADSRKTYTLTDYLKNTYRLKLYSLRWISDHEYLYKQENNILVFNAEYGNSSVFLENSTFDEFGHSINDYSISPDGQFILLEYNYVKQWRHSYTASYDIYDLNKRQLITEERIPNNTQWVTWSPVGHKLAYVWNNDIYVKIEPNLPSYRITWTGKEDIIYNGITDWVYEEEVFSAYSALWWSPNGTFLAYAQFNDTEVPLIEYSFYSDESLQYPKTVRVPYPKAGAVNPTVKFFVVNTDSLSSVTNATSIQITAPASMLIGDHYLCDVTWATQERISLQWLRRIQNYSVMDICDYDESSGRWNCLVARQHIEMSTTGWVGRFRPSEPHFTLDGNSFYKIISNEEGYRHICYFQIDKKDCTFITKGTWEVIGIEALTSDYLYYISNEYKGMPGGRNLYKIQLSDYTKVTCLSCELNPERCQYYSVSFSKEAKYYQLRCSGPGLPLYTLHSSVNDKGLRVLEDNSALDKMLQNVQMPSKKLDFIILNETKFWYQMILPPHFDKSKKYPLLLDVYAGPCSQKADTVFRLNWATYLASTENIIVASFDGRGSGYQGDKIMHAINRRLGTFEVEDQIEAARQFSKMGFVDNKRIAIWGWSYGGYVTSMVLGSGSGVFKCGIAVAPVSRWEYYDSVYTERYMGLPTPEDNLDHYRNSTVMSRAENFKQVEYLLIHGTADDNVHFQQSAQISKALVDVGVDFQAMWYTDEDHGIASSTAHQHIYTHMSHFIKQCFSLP
# Experimental: Cultivation of human colon carcinoma cell-line cells (Caco-2): Caco-2 cells were cultivated in a culture medium of DMEM (high glucose, containing 10% fetal bovine serum, 1% NAA), and the cell lines were passaged in a proportion of 1:1 or 1:2; after nearly reaching confluence, the cells were further cultivated for 2-3 weeks, while changing the medium once every 2-3 days.
# Preparation of DPP-IV: the cells were washed with a pre-cooled PBS for 2-3 times, and 0.5-1 ml ice-cold 10 mM Tris-HCl (containing 0.15 M NaCl, 0.04 t.i.u aprotinin, 0.5% nonionic detergent P40, pH 8) was added to each culture bottle to lysate the cells, followed by collecting them in a centrifuge tube. After centrifugation at 4° C., 35000 g for […], the obtained supernatant was collected, and subjected to a protein content detection, and then stored in a low temperature refrigerator.
# The test groups included enzyme control group, substrate control group, enzyme reaction control group, and compound group, and the test was carried out in a 96-pore plate, using 150 μL reaction system. In the 96-pore plate, a diluted test compound was added in the compound group, 30 μL/pore; 20 μL DPP-IV solution was added in the enzyme control group, as well as in the compound group; an analytic buffer (25 mM Tris-HCl pH 7.4, containing 140 mM NaCl, 10 mM KCl, 1% bovine serum albumin) was added in 130 μL to the enzyme control group, in 125 μL to the substrate control group, in 105 μL to the enzyme reaction control group, and in 75 μL to the compound group; and then 25 μL substrate (1 mM) was added, followed by reacting at room temperature for 10 min. No substrate was added in the enzyme control group. After reacting for 10 min, 25% glacial acetic acid was added in 19 μL/pore to terminate the reaction. The absorbance was determined by using an enzyme calibrating apparatus at a wavelength of 405 nm.
# [2] = test system: obese mouse; conditions: 10 mg/kg, 2 times/d, long-term treatment; cited from earlier work
# [3] = test system: streptozotocin-induced DM male mouse; conditions: 2 times/d, after 7 weeks; cited from earlier work
# [4] = pig, in vivo, cited from earlier work
compound,measurement,setting,value
"CC(C)[C@@H](N)C(=O)N1CCSC[C@H]1C#N (stereo in doubt) [Compound 1, (R)-3-cyano-4-(2-amino-3-methyl-butyryl)thiomorpholine hydrochloride]",inhibition at 0.01 µM,"[1]; Concentration 10 nM, read-out: Inhibitory rate(%)",7.65 ± 0.68%
same,inhibition at 0.03 µM,"[1]; Concentration 30 nM, read-out: Inhibitory rate(%)",13.2 ± 1.92%
same,inhibition at 0.1 µM,[1]; read-out: Inhibitory rate(%),40.3 ± 3.09%
same,inhibition at 0.3 µM,[1]; read-out: Inhibitory rate(%),73 ± 1.74%
same,inhibition at 1 µM,"[1]; Concentration 1000 nM, read-out: Inhibitory rate(%)",101 ± 1.36%
same,IC50,[1]; DPP-IV from Caco-2 cells,189 ± 26.4 nM
"CC(C)C[C@@H](N)C(=O)N1CCSC[C@H]1C#N [Compound 2, (R)-3-cyano-4-(2-amino-4-methyl-pentanoyl)thiomorpholine hydrochloride]",inhibition at 0.1 µM,[1]; read-out: Inhibitory rate(%),24.1 ± 2.41%
same,inhibition at 0.3 µM,[1]; read-out: Inhibitory rate(%),47.2 ± 0.64%
CC(C)(C)[C@H](N)C(=O)N1CCC[C@H]1C#N [FE 999011],postponement of the occurrence of hyperglycemia,[2],21 days
CC[C@H](C)[C@H](N)C(=O)N1CCSC1 [P32/98],"fraction of islet β cells increased, as compared with the control group",[3],12%
same,"number of islets increased, as compared with the control group",[3],35%
same,"number of overall β cells increased, as compared with the control group",[3],120%
same,plasma insulin level,[3],approaching to normal
"GIP: gastric inhibitory peptide, an incretin secreted by K cells, substrate of DPP-IV",immunocompetence of intact GIP shown by radioimmunoassay,[4]; iv,14.5%
same,immunocompetence of GIP,[4],49%
